Patent US9480695B2, “Methods for inducing orexin neurons and agent for treating narcolepsy or eating disorder” (THE UNIVERSITY OF TOKYO, priority 2011, dated 2016)

Tests used:
[1] = tested on: endbrain-derived neurosphere (NSph); assay: Orexin inducing action on mouse fetus-derived neurosphere (NSph), RT-PCR; type: cell-based; conditions: 1 mM from initiation of NSph culture, 6 days plus 10 days differentiation; FIG. 7
Description: A culture and differentiation induction experiment was performed based on the method of Ciccolini and Svendsen (1998, J Neurosci. 18(19): 7869-80). An endbrain was removed from a C57BL/6N mouse fetus having an embryonic age of 14.5 days in ice-cold PBS/0.6% glucose. Dispersion into a single cell was performed by pipetting, and cells were suspended in a medium for NSph [DMEM/F12 (Wako) containing 1×B27 (Invitrogen), 20 ng/ml EGF (Sigma), 20 ng/ml FGF-basic (PEPROTECH), 5 μg/ml heparin (Sigma)] and seeded on a 10 cm petri dish in an amount of 2×10^6 cells/10 ml. Half the amount of the medium was exchanged 3 days after initiation of culturing, and culturing was performed for another 3 days (total 6 days).
NSph was recovered 6 days after initiation of culturing, and cells were dispersed by pipetting in PBS/0.6% glucose. Cells were collected by centrifugation and suspended in a medium for differentiation induction (not containing EGF, FGF-basic and heparin of a medium for NSph). Cells were seeded in an amount of 4.5×10^5 cells/7.5 ml on a 6 cm dish which had been coated with poly-L-lysine/laminin (both Sigma) in advance, and differentiation was induced. Half the amount of the medium was exchanged 5 days after initiation of differentiation induction, and culturing was performed for another 5 days (total 10 days). […]

[2] = tested on: Mouse ES cells (J1 strain); assay: Hcrt expression with ManNAc plus Sirt inhibitor or Ogt inhibitor, neural differentiation from mouse ES cell, RT-PCR; type: cell-based; conditions: ManNAc 1.0 mM from 0th day, BADGP 1 mM or 5 mM on 7th day, collected 10th day; FIG. 9
Description: According to the same manner as that described in Example 1, mouse ES cells (J1 strain) were cultured for 10 days for differentiation induction into a nerve cell. A protocol of inducing differentiation into a nerve cell is shown in the upper column of FIG. 11. From the initiation of differentiation culturing (0th day), ManNAc was added to a neural differentiation medium so that the concentration became 1.0 mM, and the medium was exchanged on 4th and 7th days of differentiation culturing. In addition, from 4th day of differentiation culturing, 5 nM recombinant human BMP4 (Wako) was added. On 7th day of differentiation culturing, EX-527 (SIGMA-ALDRICH) was added to a neural differentiation medium so that the concentration became 50 nM or BADGP (SIGMA-ALDRICH) was added to a neural differentiation medium so that the concentration became 1 or 5 mM, and on 10th day of differentiation culturing, cells were collected and subjected to RT-PCR. The conditions of RT-PCR are the same as those of Example 1.

SMILES: CC(=O)N[C@@H]1C(O)O[C@H](CO)[C@@H](O)[C@@H]1O (stereo partly drawn) [ManNAc, N-acetyl-D-mannosamine]
- Expression of Hcrt [1]: detected only in a 1.0 mM ManNAc-added culture
- Expression of an orexin gene (Hcrt) [2]: expression of Hcrt which had been recognized in a ManNAc-added section
